Legend:
[1] = system: hyperreactivity of the bronchi induced by methacholine; assay: Hyperreactivity of the bronchi, pletismometric method, mice; format: in vivo; conditions: i.p. 10 mg/kg, totally for 4 days, methacholine concentration of 25 mg/mL, measured over 24 hours after the provocative test
Description: (§1) Hyperreactivity of the Bronchi
(§2) The hyperreactivity of the bronchi was measured by pletismometric method (Buxco pletismometer), which is based on pressure difference and was performed in conscious and non-bound animals. The action of the compounds on the hyperreactivity of the bronchi induced by methacholine (Sigma) in aerosol form in different concentrations was expressed by the percentage of the increase of the enhanced pause value (PENH) above the base line, which was recorded without a cholinergic stimulant.
Compound 6 was used i.p. in mice in a dosis of 10 mg/kg within a period beginning two days prior to provocative test to the end of the test, totally for 4 days. The hyperreactivity of the bronchi was measured by pletismometric method over 24 hours after the provocative test.

[2] = system: hyperreactivity of the bronchi induced by methacholine; assay: Hyperreactivity of the bronchi, pletismometric method, rats; format: in vivo; conditions: i.p. 10 mg/kg, totally for 4 days, methacholine concentration of 50 mg/mL, measured over 24 hours after the provocative test
Description: as §1, §2
Compound 36 was used i.p. in rats in a dosis of 10 mg/kg within a period beginning two days prior to the provocative test to the end of test, totally for 4 days. The hyperreactivity of the bronchi was measured by pletismometric method over 24 hours after the provocative test.

Row | Compound | hyperreactivity of respiratory airways (PENH) in relation to the positive control group [1] | hyperreactivity of respiratory airways (PENH) in relation to the positive control group [2]
1 | Cc1cc(C)c2c(O)c(C3c4c(c5c(C)cc(C)cc5oc4=O)OC3O)c(=O)oc2c1 (centres unmarked) [Compound 6, 2-Hydroxy-3-(4-hydroxy-5,7-dimethyl-2-oxo-2H-chromene-3-yl)-7,9-dimethyl-2,3-dihydro-4H-furo[3,2-c]chromene-4-one] | statistically significantly (t-test, p<0.05) decreased | –
2 | O=c1oc2cc(Cl)ccc2c(O)c1C1c2c(c3ccc(Cl)cc3oc2=O)OC1O (centres unmarked) [Compound 36, 2-Hydroxy-3-(4-hydroxy-7-chloro-2-oxo-2H-chromene-3-yl)-7-chloro-2,3-dihydro-4H-furo[3,2-c]chromene-4-one] | – | statistically significantly (t-test, p<0.01) decreased

From US7208518B2, “Substituted furochromene compounds of antiinflammatory action” (GlaxoSmithKline Istrazivacki Centar Zagreb D.O.O., priority 2003, dated 2007)
